Source: the NIST ThermoML archive (doi:10.1021/je5009334)
Numbers after ± are expanded uncertainties.

Assay: xn = mol fraction of the nth substance listed
Conditions: 101 kPa, Liquid; for speed of sound: Sing-around technique in a fixed-path interferometer; for mass density: Vibrating tube method

CCC(O)CO (stereo not given) [1,2-butanediol] + OCc1ccccc1
Conditions	mass density [kg/m3]	speed of sound [m/s]
298.15 K, x2 = 0	998.492 ± 0.23	1452.6 ± 1.3
298.15 K, x2 = 0.1	1003.29 ± 0.23	1460.7 ± 1.3
298.15 K, x2 = 0.2	1007.97 ± 0.24	1469.2 ± 1.3
298.15 K, x2 = 0.3	1012.52 ± 0.24	1477.2 ± 1.3
298.15 K, x2 = 0.4	1016.95 ± 0.24	1485.3 ± 1.3
298.15 K, x2 = 0.5	1021.24 ± 0.25	1493.2 ± 1.3
298.15 K, x2 = 0.6	1025.4 ± 0.25	1500.6 ± 1.3
298.15 K, x2 = 0.7	1029.45 ± 0.26	1507.6 ± 1.3
298.15 K, x2 = 0.8	1033.41 ± 0.26	1514 ± 1.3
298.15 K, x2 = 0.9	1037.31 ± 0.26	1519.9 ± 1.3
303.15 K, x2 = 0	994.744 ± 0.23	1438.2 ± 1.3
303.15 K, x2 = 0.1	999.491 ± 0.23	1445.9 ± 1.3
303.15 K, x2 = 0.2	1004.13 ± 0.23	1454.3 ± 1.3
303.15 K, x2 = 0.3	1008.65 ± 0.24	1462.1 ± 1.3
303.15 K, x2 = 0.4	1013.06 ± 0.24	1470.3 ± 1.3
303.15 K, x2 = 0.5	1017.34 ± 0.25	1478 ± 1.3
303.15 K, x2 = 0.6	1021.49 ± 0.25	1485.2 ± 1.3
303.15 K, x2 = 0.7	1025.54 ± 0.25	1491.7 ± 1.3
303.15 K, x2 = 0.8	1029.5 ± 0.26	1498 ± 1.3
303.15 K, x2 = 0.9	1033.42 ± 0.26	1503.9 ± 1.3
308.15 K, x2 = 0	990.956 ± 0.23	1423.6 ± 1.3
308.15 K, x2 = 0.1	995.66 ± 0.23	1431.2 ± 1.3
308.15 K, x2 = 0.2	1000.26 ± 0.23	1439.4 ± 1.3
308.15 K, x2 = 0.3	1004.76 ± 0.23	1446.8 ± 1.3
308.15 K, x2 = 0.4	1009.14 ± 0.24	1454.9 ± 1.3
308.15 K, x2 = 0.5	1013.4 ± 0.24	1462.5 ± 1.3
308.15 K, x2 = 0.6	1017.55 ± 0.25	1469.4 ± 1.3
308.15 K, x2 = 0.7	1021.6 ± 0.25	1476 ± 1.3
308.15 K, x2 = 0.8	1025.58 ± 0.25	1482.2 ± 1.3
308.15 K, x2 = 0.9	1029.52 ± 0.25	1488.1 ± 1.3
313.15 K, x2 = 0	987.136 ± 0.23	1409.2 ± 1.3
313.15 K, x2 = 0.1	991.786 ± 0.23	1416.7 ± 1.3
313.15 K, x2 = 0.2	996.372 ± 0.23	1424.4 ± 1.3
313.15 K, x2 = 0.3	1000.84 ± 0.23	1431.8 ± 1.3
313.15 K, x2 = 0.4	1005.2 ± 0.24	1439.7 ± 1.3
313.15 K, x2 = 0.5	1009.46 ± 0.24	1447.1 ± 1.3
313.15 K, x2 = 0.6	1013.6 ± 0.24	1453.9 ± 1.3
313.15 K, x2 = 0.7	1017.66 ± 0.25	1460.4 ± 1.3
313.15 K, x2 = 0.8	1021.64 ± 0.25	1466.6 ± 1.3
313.15 K, x2 = 0.9	1025.6 ± 0.25	1472.5 ± 1.3
318.15 K, x2 = 0	983.284 ± 0.23	1394.6 ± 1.2
318.15 K, x2 = 0.1	987.894 ± 0.23	1401.9 ± 1.2
318.15 K, x2 = 0.2	992.45 ± 0.23	1409.5 ± 1.3
318.15 K, x2 = 0.3	996.891 ± 0.23	1416.7 ± 1.3
318.15 K, x2 = 0.4	1001.24 ± 0.23	1424.3 ± 1.3
318.15 K, x2 = 0.5	1005.48 ± 0.24	1431.4 ± 1.3
318.15 K, x2 = 0.6	1009.62 ± 0.24	1438.2 ± 1.3
318.15 K, x2 = 0.7	1013.68 ± 0.24	1444.8 ± 1.3
318.15 K, x2 = 0.8	1017.69 ± 0.24	1451 ± 1.3
318.15 K, x2 = 0.9	1021.67 ± 0.25	1456.9 ± 1.3
323.15 K, x2 = 0	979.394 ± 0.23	1380 ± 1.2
323.15 K, x2 = 0.1	983.969 ± 0.23	1387.2 ± 1.2
323.15 K, x2 = 0.2	988.488 ± 0.23	1394.3 ± 1.2
323.15 K, x2 = 0.3	992.923 ± 0.23	1401.7 ± 1.3
323.15 K, x2 = 0.4	997.257 ± 0.23	1409.1 ± 1.3
323.15 K, x2 = 0.5	1001.49 ± 0.23	1416.2 ± 1.3
323.15 K, x2 = 0.6	1005.63 ± 0.24	1423.1 ± 1.3
323.15 K, x2 = 0.7	1009.7 ± 0.24	1429.5 ± 1.3
323.15 K, x2 = 0.8	1013.72 ± 0.24	1435.7 ± 1.3
323.15 K, x2 = 0.9	1017.72 ± 0.24	1441.6 ± 1.3
